{
  "source": "ChEMBL document CHEMBL1121561",
  "about": "“Synthesis and antineoplastic activity of a novel series of phosphoramide mustard analogues of pyrimidine deoxyribonucleosides” (1980)",
  "key": {"L1210 [1]": {"system": "L1210", "assay": "Compound was tested in vitro for its inhibition against replication of L1210 neoplastic cells", "format": "functional", "conditions": "Mus musculus, read-out: ID50 (the source's name)"}, "L1210 [2]": {"system": "L1210", "assay": "Compound was tested in vitro for its inhibition against replication of L1210 neoplastic cells; Inactive", "format": "functional, cell-based", "conditions": "Mus musculus"}},
  "note": "Activity calls are given as the source filed them. The rule behind the calls is not given here.",
  "data": [
    {"smiles": "Cc1cn(C2CC3OP(=O)(N(CCCl)CCCl)N(C)CC3O2)c(=O)[nH]c1=O", "note": "(stereo not given)", "values": [
      {"measurement": "IC50", "setting": "L1210 [1]", "value": 15, "unit": "µM"}
    ]},
    {"smiles": "Cc1cn(C2CC3NP(=O)(N(CCCl)CCCl)NCC3O2)c(=O)[nH]c1=O", "note": "(stereo not given)", "values": [
      {"measurement": "ID50", "setting": "L1210 [2]", "value": "inactive"}
    ]},
    {"smiles": "Cc1cn(C2CC3OP(=O)(N(CCCl)CCCl)NCC3O2)c(=O)[nH]c1=O", "note": "(stereo not given)", "values": [
      {"measurement": "IC50", "setting": "L1210 [1]", "value": 12, "unit": "µM"}
    ]},
    {"smiles": "O=P1(N(CCCl)CCCl)NCCCO1", "note": "(stereo not given)", "values": [
      {"measurement": "ID50", "setting": "L1210 [2]", "value": "inactive"}
    ]},
    {"smiles": "O=c1[nH]c(=O)n(C2CC3OP(=O)(N(CCCl)CCCl)NCC3O2)cc1I", "note": "(stereo not given)", "values": [
      {"measurement": "IC50", "setting": "L1210 [1]", "value": 14, "unit": "µM"}
    ]}
  ]
}
